The numbers were not newly measured in patent publication US20220125818A1, “COMPOSITIONS AND METHODS FOR TREATMENT OF A CORONAVIRUS DISEASE (COVID-19) INFECTION” (priority 2020, published 2022), which cites them from elsewhere.

The target of this data set is T1, COX-1 (Homo sapiens, UniProt P23219).
T1 construct: endogenous in cells; host or cells: platelets (in vivo)
The following applies: average platelet lifespan.

T1 sequence (P23219 24-599): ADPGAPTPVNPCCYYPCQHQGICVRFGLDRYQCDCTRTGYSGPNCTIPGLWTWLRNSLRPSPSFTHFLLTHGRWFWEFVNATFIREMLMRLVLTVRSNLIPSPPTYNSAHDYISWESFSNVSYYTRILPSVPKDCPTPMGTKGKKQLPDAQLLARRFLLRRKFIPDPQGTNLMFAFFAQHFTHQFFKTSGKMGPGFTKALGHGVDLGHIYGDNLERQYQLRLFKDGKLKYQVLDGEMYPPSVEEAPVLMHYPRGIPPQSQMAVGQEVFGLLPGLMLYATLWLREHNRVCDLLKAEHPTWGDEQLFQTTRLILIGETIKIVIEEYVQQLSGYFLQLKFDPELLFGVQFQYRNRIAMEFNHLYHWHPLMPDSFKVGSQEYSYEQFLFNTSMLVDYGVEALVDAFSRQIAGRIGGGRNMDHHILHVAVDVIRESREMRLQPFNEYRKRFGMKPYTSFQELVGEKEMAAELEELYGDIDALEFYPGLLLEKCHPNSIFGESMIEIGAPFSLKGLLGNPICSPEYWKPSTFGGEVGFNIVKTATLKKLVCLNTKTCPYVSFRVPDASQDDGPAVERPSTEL

As for `CC(=O)Oc1ccccc1C(=O)O` [Aspirin®, Acetylsalicylic acid], the “duration of inhibition of platelet aggregation” value is 7 to 10 days.
